Test results from patent US6706664B1, “Benzoxazole compounds, process for the preparation thereof and herbicides” (UBE Industries, Ltd., priority 1999, dated 2004).

Tests used:
Set-up in all cases: key: 0: normal development; 1: Less damaged; 2: Slightly damaged; 3: Moderately damaged; 4: Severely damaged; 5: All killed
common lambsquartes = assay: Foliar spread test for upland field; type: in vivo, Chenopodium album; conditions: foliar spray 500 ppm, 3 weeks, rank vs non-treated
Outline: (§1)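 Post-emergence foliar spray, 500 ppm (wettable powder in water + 0.5% surfactant), on ~2-week-old plants grown in volcanic ash soil; glasshouse, avg 25° C, 3 wk; visual damage score 0–5.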

livid amaranth [1] = assay: Foliar spread test for upland field; type: in vivo, Amaranthus lividus; conditions: foliar spray 500 ppm, 3 weeks, rank vs non-treated
Outline: as §1

green foxtail [2] = assay: Soil treatment test for upland field; type: in vivo, Setaria viridis; conditions: 500 g/ha, glass house 25° C., 3 weeks
Outline: (§2)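 Pre-emergence: seeds sown in Ube alluvial soil in pots, then soil surface sprayed with wettable-powder formulation diluted in water with 0.05% surfactant at 500 g/ha. Plants kept in glasshouse at average 25° C for 3 weeks; injury scored 0 (normal) to 5 (all killed).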

green foxtail [3] = assay: Foliar spread test for upland field; type: in vivo, Setaria viridis; conditions: foliar spray 500 ppm, 3 weeks, rank vs non-treated
Outline: as §1

barnyardgrass = assay: Soil treatment test for upland field; type: in vivo, Echinochloa crusgalli; conditions: 500 g/ha, glass house 25° C., 3 weeks
Outline: as §2

annual bluegrass [4] = assay: Soil treatment test for upland field; type: in vivo, Poa annua; conditions: 500 g/ha, glass house 25° C., 3 weeks
Outline: as §2

Large crabgrass [5] = assay: Foliar spread test for upland field; type: in vivo, Digitaria adscendens; conditions: foliar spray 500 ppm, 3 weeks, rank vs non-treated
Outline: as §1

corn [6] = assay: Foliar spread test for upland field; type: in vivo; conditions: foliar spray 500 ppm, 3 weeks, rank vs non-treated
Outline: (§3)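 Wettable powders at 500 ppm, with 0.5% surfactant, were sprayed uniformly over plants raised for roughly 2 weeks in glasshouse pots of volcanic ash soil. Herbicidal damage rated on a 0–5 scale (5 = all killed) after a further 3 weeks at an average 25 °C.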

solgum [7] = assay: Foliar spread test for upland field; type: in vivo; conditions: foliar spray 500 ppm, 3 weeks, rank vs non-treated
Outline: as §3

sugar beat [8] = assay: Foliar spread test for upland field; type: in vivo; conditions: foliar spray 500 ppm, 3 weeks, rank vs non-treated
Outline: as §3

wheat [9] = assay: Foliar spread test for upland field; type: in vivo; conditions: foliar spray 500 ppm, 3 weeks, rank vs non-treated
Outline: as §3

corn [10] = assay: Soil treatment test for upland field; type: in vivo; conditions: 500 g/ha, glass house 25° C., 3 weeks
Outline: as §2

soybean = assay: Soil treatment test for upland field; type: in vivo; conditions: 500 g/ha, glass house 25° C., 3 weeks
Outline: as §2

cotton = assay: Soil treatment test for upland field; type: in vivo; conditions: 500 g/ha, glass house 25° C., 3 weeks
Outline: as §2

solgum [11] = assay: Soil treatment test for upland field; type: in vivo; conditions: 500 g/ha, glass house 25° C., 3 weeks
Outline: as §2

sugar beat [12] = assay: Soil treatment test for upland field; type: in vivo; conditions: 500 g/ha, glass house 25° C., 3 weeks
Outline: as §2

wheat [13] = assay: Soil treatment test for upland field; type: in vivo; conditions: 500 g/ha, glass house 25° C., 3 weeks
Outline: as §2

morning glory = assay: Foliar spread test for upland field; type: in vivo, Ipomoea spps.; conditions: foliar spray 500 ppm, 3 weeks, rank vs non-treated
Outline: as §1

Large crabgrass [14] = assay: Soil treatment test for upland field; type: in vivo, Digitaria adscendens; conditions: 500 g/ha, glass house 25° C., 3 weeks
Outline: as §2

livid amaranth [15] = assay: Soil treatment test for upland field; type: in vivo, Amaranthus lividus; conditions: 500 g/ha, glass house 25° C., 3 weeks
Outline: as §2

annual bluegrass [16] = assay: Foliar spread test for upland field; type: in vivo, Poa annua; conditions: foliar spray 500 ppm, 3 weeks, rank vs non-treated
Outline: as §1

Row | Structure (SMILES) | Effects Common lambsquarters (common lambsquartes) | Effects Livid amaranth (livid amaranth [1]) | Effects Green foxtail (green foxtail [2]) | Effects Green foxtail (green foxtail [3]) | Effects Barnyardgrass (barnyardgrass) | Effects Annual bluegrass (annual bluegrass [4]) | Effects Large crabgrass (Large crabgrass [5]) | Effects Corn (corn [6]) | Effects Solgum (solgum [7]) | Effects Sugar beat (sugar beat [8]) | Effects Wheat (wheat [9]) | Effects Corn (corn [10]) | Effects Soybean (soybean) | Effects Cotton (cotton) | Effects Solgum (solgum [11]) | Effects Sugar beat (sugar beat [12]) | Effects Wheat (wheat [13]) | Effects Morning glory (morning glory) | Effects Large crabgrass (Large crabgrass [14]) | Effects Livid amaranth (livid amaranth [15]) | other results
1 | CCC(Oc1ccc(F)c(C(F)(F)F)c1)c1nc2cc(F)ccc2o1 (stereo not drawn) [Compound 119, 1-(5-fluorobenzoxazol-2-yl)-1-(4-fluoro-3-(trifluoromethyl)phenoxy)propane] | 4 | 4 | 5 | 1 | 5 | 5 | 1 | 2 | 1 | 3 | 1 | 0 | 0 | 0 | 0 | 5 | 0 | 3 | 5 | 5 | –
2 | CC(Oc1ccc(F)c(C(F)(F)F)c1)c1nc2cc(Cl)ccc2o1 (stereo not drawn) [Compound 137] | – | 4 | 5 | 3 | 3 | 5 | 1 | 2 | 1 | 5 | 1 | 1 | 0 | 0 | 1 | 2 | 1 | 2 | 5 | 5 | –
3 | CCCC(Oc1cccc(C(F)(F)F)c1)c1nc2cc(C#N)c(C#N)cc2o1 (stereo not drawn) [Compound 317] | 5 | 5 | 5 | 5 | 3 | 5 | – | 2 | 1 | 5 | 2 | 2 | 1 | 0 | 1 | 5 | 1 | – | 5 | 5 | Effects Annual bluegrass (annual bluegrass [16]): 5
4 | CCC(Oc1cccc(C(F)(F)F)c1)c1nc2cc(Br)ccc2o1 (stereo not drawn) [Compound 166] | 4 | 4 | 5 | 3 | 4 | 5 | 3 | 3 | 1 | 4 | 1 | 0 | 0 | 0 | 0 | 5 | 0 | 4 | 5 | 5 | –
5 | CCCC(Oc1ccc(F)c(C(F)(F)F)c1)c1nc2cc(F)c(Cl)cc2o1 (stereo not drawn) [Compound 494] | 4 | 5 | 5 | 3 | 4 | 5 | – | 2 | 1 | 3 | 1 | 1 | 0 | 0 | 1 | 5 | 1 | 2 | 5 | 5 | –
6 | CCC(Oc1cccc(OC(F)(F)F)c1)c1nc2cc(C#N)c(C#N)cc2o1 (stereo not drawn) [Compound 527] | 5 | 5 | 5 | 5 | 4 | 5 | 2 | – | 1 | 5 | 2 | 2 | 1 | 0 | 1 | 5 | 1 | – | 5 | 5 | Effects Annual bluegrass (annual bluegrass [16]): 5
7 | CCC(Oc1cccc(C#N)c1)c1nc2cc(F)c(Cl)cc2o1 (stereo not drawn) [Compound 498] | – | 4 | 5 | 4 | 3 | 5 | 3 | 1 | 1 | 4 | 2 | 0 | 1 | 1 | 1 | 5 | 1 | – | 5 | 5 | Effects Annual bluegrass (annual bluegrass [16]): 2
